# Test results taken from PubChem BioAssay AID2060606 (Molecular Pharmacology Branch, DTP, NCI, 2025).
# Tested on: 922993-354-T-J3-PDC complex spheroids, viability, % test/control
# Experiment: Anticancer human tumor 922993-354-T-J3-PDC patient-derived endometrial carcinoma cell line growth inhibition [CLK]
# Conditions: for IC50: curve of first compound; for viability, T/C: stronger effect = lower value
# Method in brief: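 Patient-derived tumor cells grown as complex spheroids with HUVEC endothelial cells and mesenchymal stem cells, treated with drug combinations. Concentrations descend in half-log steps from near clinical Cmax, or from 10 microM if Cmax unknown.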
# [1] = second compound 0.0316 µM, first compound 0.0316 µM
# [2] = second compound 0.0316 µM, first compound 0.1 µM
# [3] = second compound 0.0316 µM, first compound 0.316 µM
# [4] = second compound 0.0316 µM, first compound 1 µM
# [5] = second compound 0.0316 µM, first compound 3.16 µM
# [6] = second compound 0.0316 µM, first compound 10 µM
# [7] = second compound 0.1 µM, first compound 0.0316 µM
# [8] = second compound 0.1 µM, first compound 0.1 µM
# [9] = second compound 0.1 µM, first compound 0.316 µM
# [10] = second compound 0.1 µM, first compound 1 µM
# [11] = second compound 0.1 µM, first compound 3.16 µM
# [12] = second compound 0.1 µM, first compound 10 µM
# [13] = second compound 0.316 µM, first compound 0.0316 µM
# [14] = second compound 0.316 µM, first compound 0.1 µM
# [15] = second compound 0.316 µM, first compound 0.316 µM
# [16] = second compound 0.316 µM, first compound 1 µM
# [17] = second compound 0.316 µM, first compound 3.16 µM
# [18] = second compound 0.316 µM, first compound 10 µM
# [19] = second compound 1 µM, first compound 0.0316 µM
# [20] = second compound 1 µM, first compound 0.1 µM
# [21] = second compound 1 µM, first compound 0.316 µM
# [22] = second compound 1 µM, first compound 1 µM
# [23] = second compound 1 µM, first compound 3.16 µM
# [24] = second compound 1 µM, first compound 10 µM
# [25] = second compound 3.16 µM, first compound 0.0316 µM
# [26] = second compound 3.16 µM, first compound 0.1 µM
# [27] = second compound 3.16 µM, first compound 0.316 µM
# [28] = second compound 3.16 µM, first compound 1 µM
# [29] = second compound 3.16 µM, first compound 3.16 µM
# [30] = second compound 3.16 µM, first compound 10 µM
# [31] = second compound 10 µM, first compound 0.0316 µM
# [32] = second compound 10 µM, first compound 0.1 µM
# [33] = second compound 10 µM, first compound 0.316 µM
# [34] = second compound 10 µM, first compound 1 µM
# [35] = second compound 10 µM, first compound 3.16 µM
# [36] = second compound 10 µM, first compound 10 µM
# 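Note: spheroids exposed to the agents for 7 days before readout.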
smiles,measurement,setting,value
COc1ccc([C@@H](O)c2cc(-c3ncnc4cc(N5CCOCC5)ccc34)c(F)cc2Cl)nn1 + CNC(=O)c1ccc(Nc2nc(OC3CCCC3)c3c(-c4ccc5nc(C)oc5c4)c[nH]c3n2)c(OC)c1,IC50,second compound 0.0316 µM,> 10000 nM
same,IC50,second compound 0.1 µM,> 10000 nM
same,IC50,second compound 0.316 µM,> 10000 nM
same,IC50,second compound 1 µM,< 31.6 nM
same,IC50,second compound 3.16 µM,< 31.6 nM
same,IC50,second compound 10 µM,< 31.6 nM
same,"viability, T/C",[1],113%
same,"viability, T/C",[2],112%
same,"viability, T/C",[3],130%
same,"viability, T/C",[4],121%
same,"viability, T/C",[5],113%
same,"viability, T/C",[6],91.2%
same,"viability, T/C",[7],104%
same,"viability, T/C",[8],110%
same,"viability, T/C",[9],99.7%
same,"viability, T/C",[10],125%
same,"viability, T/C",[11],104%
same,"viability, T/C",[12],92.5%
same,"viability, T/C",[13],64.3%
same,"viability, T/C",[14],64.5%
same,"viability, T/C",[15],66.6%
same,"viability, T/C",[16],67.8%
same,"viability, T/C",[17],87.1%
same,"viability, T/C",[18],71.9%
same,"viability, T/C",[19],39.3%
same,"viability, T/C",[20],40.6%
same,"viability, T/C",[21],40%
same,"viability, T/C",[22],40.9%
same,"viability, T/C",[23],52.1%
same,"viability, T/C",[24],56.8%
same,"viability, T/C",[25],31.8%
same,"viability, T/C",[26],28.8%
same,"viability, T/C",[27],34.8%
same,"viability, T/C",[28],41.2%
same,"viability, T/C",[29],45.8%
same,"viability, T/C",[30],41%
same,"viability, T/C",[31],34%
same,"viability, T/C",[32],30.6%
same,"viability, T/C",[33],41.6%
same,"viability, T/C",[34],33.8%
same,"viability, T/C",[35],44.2%
same,"viability, T/C",[36],37.1%
COc1cccc2c1C(=O)c1c(O)c3c(c(O)c1C2=O)CC(O)(C(=O)CO)CC3OC1CC(N)C(O)C(C)O1 (centres undefined) + CNC(=O)c1ccc(Nc2nc(OC3CCCC3)c3c(-c4ccc5nc(C)oc5c4)c[nH]c3n2)c(OC)c1,IC50,second compound 0.0316 µM,3130 nM
same,IC50,second compound 0.1 µM,3770 nM
same,IC50,second compound 0.316 µM,1890 nM
same,IC50,second compound 1 µM,< 31.6 nM
same,IC50,second compound 3.16 µM,< 31.6 nM
same,IC50,second compound 10 µM,< 31.6 nM
same,"viability, T/C",[1],101%
same,"viability, T/C",[2],116%
same,"viability, T/C",[3],102%
same,"viability, T/C",[4],78%
same,"viability, T/C",[5],52.3%
same,"viability, T/C",[6],22.1%
same,"viability, T/C",[7],122%
same,"viability, T/C",[8],123%
same,"viability, T/C",[9],108%
same,"viability, T/C",[10],85.7%
same,"viability, T/C",[11],57%
same,"viability, T/C",[12],18.7%
same,"viability, T/C",[13],77%
same,"viability, T/C",[14],63%
same,"viability, T/C",[15],66.6%
same,"viability, T/C",[16],71.3%
same,"viability, T/C",[17],34.3%
same,"viability, T/C",[18],17.5%
same,"viability, T/C",[19],43.1%
same,"viability, T/C",[20],44.3%
same,"viability, T/C",[21],22.2%
same,"viability, T/C",[22],23.5%
same,"viability, T/C",[23],25.9%
same,"viability, T/C",[24],3.3%
same,"viability, T/C",[25],36.8%
same,"viability, T/C",[26],21.1%
same,"viability, T/C",[27],18.2%
same,"viability, T/C",[28],21.7%
same,"viability, T/C",[29],10.2%
same,"viability, T/C",[30],0.97%
same,"viability, T/C",[31],27.5%
same,"viability, T/C",[32],12.8%
same,"viability, T/C",[33],16.8%
same,"viability, T/C",[34],24.5%
same,"viability, T/C",[35],3.31%
same,"viability, T/C",[36],1.92%
